Measured values as given in ChEMBL document CHEMBL5126576, “From tryptophan to novel mitochondria-disruptive agent, synthesis and biological evaluation of 1,2,3,6-tetrasubstituted carbazoles” (Eur J Med Chem, 2022).
Active and inactive are the calls of the source. The rule behind the calls is not given here.

Assays:
HCT-116 [1] = experiment: Antiproliferative activity against human HCT-116 cells after 72 hrs by MTT assay; type: functional, cell-based; conditions: HCT-116, 72 h
A549 [2] = experiment: Antiproliferative activity against human A549 cells after 72 hrs by MTT assay; type: functional, cell-based; conditions: A549, 72 h
MCF7 = experiment: Antiproliferative activity against human MCF7 cells after 72 hrs by MTT assay; type: functional, cell-based; conditions: MCF7, 72 h
U2OS [3] = experiment: Antiproliferative activity against human U2OS cells after 72 hrs by MTT assay; type: functional, cell-based
HepG2 = experiment: Antiproliferative activity against human HepG2 cells after 72 hrs by MTT assay; type: functional, cell-based; conditions: HepG2, 72 h
[4] = Antiproliferative activity against human HEK293 cells after 72 hrs by MTT assay; type: toxicity, cell-based
HCT-116 [5] = experiment: Induction of cell cycle arrest in human HCT-116 cells assessed as increase in G2/M phase at IC50 measured after 24 hrs by flow cytometry; type: functional, cell-based
HCT-116 [6] = experiment: Induction of cell cycle arrest in human HCT-116 cells assessed as moderate increase in S phase at IC50 measured after 24 hrs by flow cytometry; type: functional, cell-based
HCT-116 [7] = experiment: Induction of cell cycle arrest in human HCT-116 cells assessed as slight increase in G0/G1 phase at IC50 measured after 24 hrs by flow cytometry; type: functional, cell-based
A549 [8] = experiment: Induction of cell cycle arrest in human A549 cells assessed as increase in G2/M phase at IC50 measured after 24 hrs by flow cytometry; type: functional, cell-based
A549 [9] = experiment: Induction of cell cycle arrest in human A549 cells assessed as moderate increase in S phase at IC50 measured after 24 hrs by flow cytometry; type: functional, cell-based
A549 [10] = experiment: Induction of cell cycle arrest in human A549 cells assessed as slight increase in G0/G1 phase at IC50 measured after 24 hrs by flow cytometry; type: functional, cell-based
U2OS [11] = experiment: Induction of cell cycle arrest in human U2OS cells assessed as increase in G2/M phase at IC50 measured after 24 hrs by flow cytometry; type: functional, cell-based
U2OS [12] = experiment: Induction of cell cycle arrest in human U2OS cells assessed as moderate increase in S phase at IC50 measured after 24 hrs by flow cytometry; type: functional, cell-based
U2OS [13] = experiment: Induction of cell cycle arrest in human U2OS cells assessed as slight increase in G0/G1 phase at IC50 measured after 24 hrs by flow cytometry; type: functional, cell-based
HCT-116 [14] = experiment: Induction of cell cycle arrest in human HCT-116 cells assessed as increase in number of cells at S phase at IC50 measured after 72 hrs by flow cytometry; type: functional, cell-based
A549 [15] = experiment: Induction of cell cycle arrest in human A549 cells assessed as increase in number of cells at G2/M phase at IC50 measured after 24 to 48 hrs by flow cytometry; type: functional, cell-based; conditions: time 24-48 hrs
A549 [16] = experiment: Induction of cell cycle arrest in human A549 cells assessed as increase in number of cells at S phase at IC50 measured after 72 hrs by flow cytometry; type: functional, cell-based
U2OS [17] = experiment: Inhibition of colony formation in human U2OS cells at 0.5 to 10 uM measured after 24 hrs crystal violet staining based assay; type: functional, cell-based; conditions: dose 0.5-10 µM
[18] = Drug uptake in human HCT-116 cells assessed as accumulation in lipid droplets at IC50 measured after 2 hr by immunofluorescence analysis; type: ADME, cell-based; conditions: hct-116, 2 h
HCT-116 [19] = experiment: Inhibition of colony formation in human HCT-116 cells at 0.5 to 10 uM measured after 24 hrs crystal violet staining based assay; type: functional, cell-based; conditions: dose 0.5-10 µM
HCT-116 [20] = experiment: Inhibition of cell migration in human HCT-116 cells at 5 to 10 uM measured after 24 hrs by wound healing assay; type: functional, cell-based; conditions: dose 5-10 µM
HCT-116 [21] = experiment: Inhibition of cell migration in human HCT-116 cells at 10 uM measured after 60 hrs by wound healing assay relative to control; type: functional
U2OS [22] = experiment: Inhibition of cell migration in human U2OS cells at 5 to 10 uM measured after 24 to 48 hrs by wound healing assay; type: functional, cell-based; conditions: dose 5-10 µM, time 24-48 hrs
HCT-116 [23] = experiment: Induction of apoptosis in human HCT-116 cells assessed as early apoptotic cells at IC50 measured after 6 hrs by Annexin-V-FITC/propidium iodide staining based flow cytometry; type: functional
HCT-116 [24] = experiment: Induction of apoptosis in human HCT-116 cells assessed as early and late apoptotic cells at IC50 measured after 24 hrs by Annexin-V-FITC/propidium iodide staining based flow cytometry; type: functional, cell-based
HCT-116 [25] = experiment: Induction of apoptosis in human HCT-116 cells assessed as necrotic cells at IC50 measured after 48 hrs by Annexin-V-FITC/propidium iodide staining based flow cytometry relative to control; type: functional
HCT-116 [26] = experiment: Induction of apoptosis in human HCT-116 cells assessed as increase in caspase 3/7 activity at IC50 measured after 6 to 48 hrs by […] based flow cytometry; type: functional, cell-based; conditions: time 6-48 hrs
HCT-116 [27] = experiment: Induction of reactive oxygen species generation in human HCT116 cells at 15 uM after 24 hrs by DCFH-DA staining based assay relative to control; type: functional
U2OS [28] = experiment: Induction of reactive oxygen species generation in human U2OS cells by DCFH-DA staining based assay; type: functional, cell-based; conditions: time 1-24 hrs
HCT-116 [29] = experiment: Induction of mitochondrial membrane potential loss in human HCT116 cells assessed as green fluorescence intensity by JC1 staining-based flow cytometry analysis; type: functional, cell-based
U2OS [30] = experiment: Induction of mitochondrial membrane potential loss in human U2OS cells assessed as green fluorescence intensity by JC1 staining-based flow cytometry analysis; type: functional, cell-based
HCT-116 [31] = experiment: Induction of mitochondrial morphological changes in human HCT-116 cells assessed as short circular-shaped mitochondria measured after 6 hrs by confocal microscopic analysis; type: functional, cell-based
U2OS [32] = experiment: Induction of mitochondrial morphological changes in human U2OS cells assessed as short circular-shaped mitochondria measured after 6 hrs by confocal microscopic analysis; type: functional, cell-based
HCT-116 [33] = experiment: Induction of mitochondrial morphological changes in human HCT-116 cells assessed as reduction in mitochondrial length measured after 6 hrs by confocal microscopic analysis relative to control; type: functional; set-up: scale not given: the % may be the effect or the level left
HCT-116 [34] = experiment: Induction of DNA damage in human HCT-116 cells assessed as increase in H2AX phosphorylation measured after 24 to 72 hrs by immunofluorescence analysis; type: functional, cell-based; conditions: time 24-72 hrs
U2OS [35] = experiment: Induction of DNA damage in human U2OS cells assessed as increase in H2AX phosphorylation measured after 48 hrs by immunofluorescence analysis relative to control; type: functional
U2OS [36] = experiment: Induction of DNA damage in human U2OS cells assessed as increase in H2AX phosphorylation measured after 72 hrs by immunofluorescence analysis relative to control; type: functional
HCT-116 [37] = experiment: Induction of cell senescence in human HCT-116 cells assessed by increase SA-beta-Gal activity measured after 24 to 48 hrs by microscopic analysis; type: functional, cell-based; conditions: time 24-48 hrs

CCOC(=O)c1c(O)c(NC(=O)c2ccc(C)o2)cc2c1[nH]c1ccccc12
IC50 (HCT-116 [1]): > 50 µM | IC50 (A549 [2]): > 50 µM | IC50 (MCF7): > 50 µM | IC50 (U2OS [3]): > 50 µM | IC50 (HepG2): > 50 µM | IC50 at 72 h [4]: > 50 µM

CCOC(=O)c1c(O)c(NC(=O)OC(C)(C)C)cc2c1[nH]c1ccc(NC(=O)OC(C)(C)C)cc12
IC50 (HCT-116 [1]): > 50 µM | IC50 (A549 [2]): > 50 µM | IC50 (MCF7): > 50 µM | IC50 (U2OS [3]): > 50 µM | IC50 (HepG2): > 50 µM | IC50 at 72 h [4]: > 50 µM

CCOC(=O)c1c(O)c(NC(C)=O)cc2c1[nH]c1ccccc12
IC50 (HCT-116 [1]): > 50 µM | IC50 (A549 [2]): > 50 µM | IC50 (MCF7): > 50 µM | IC50 (U2OS [3]): > 50 µM | IC50 (HepG2): > 50 µM | IC50 at 72 h [4]: > 50 µM

CCOC(=O)c1c(O)c(NC(=O)OC(C)(C)C)cc2c1[nH]c1ccc(OC(C)=O)cc12
IC50 (HCT-116 [1]): 46.4 µM | IC50 (A549 [2]): > 50 µM | IC50 (MCF7): > 50 µM | IC50 (U2OS [3]): 37.5 µM | IC50 (HepG2): > 50 µM | IC50 at 72 h [4]: > 50 µM

CC(C)(C)OC(=O)Nc1cc2c([nH]c3ccccc32)c(C(=O)O)c1O
IC50 (HCT-116 [1]): 3.75 µM | IC50 (A549 [2]): 11.5 µM | IC50 (MCF7): > 50 µM | IC50 (U2OS [3]): 2.34 µM | IC50 (HepG2): > 50 µM | IC50 at 72 h [4]: > 50 µM | Activity (HCT-116 [5]): Active | Activity (HCT-116 [6]): Active | Activity (HCT-116 [7]): Active | Activity (A549 [8]): Active | Activity (A549 [9]): Active | Activity (A549 [10]): Active | Activity (U2OS [11]): Active | Activity (U2OS [12]): Active | Activity (U2OS [13]): Active | Activity (HCT-116 [14]): Active | Activity (A549 [15]): Active | Activity (A549 [16]): Active | inhibition (U2OS [17]): Active | Drug uptake [18]: Active | inhibition (HCT-116 [19]): Active | inhibition (HCT-116 [20]): Active | inhibition at 10 µM (HCT-116 [21]): 64.4% | inhibition (U2OS [22]): Active | Activity (HCT-116 [23]): 11.23% | Activity (HCT-116 [24]): Active | Activity (HCT-116 [25]): 2.38% | Activity (HCT-116 [26]): Active | Activity (HCT-116 [27]): 64.2% | Activity (U2OS [28]): Active | Activity (HCT-116 [29]): Active | Activity (U2OS [30]): Active | Activity (HCT-116 [31]): Active | Activity (U2OS [32]): Active | Activity (HCT-116 [33]): 36.71% | Activity (HCT-116 [34]): Active | Activity (U2OS [35]): 51% | Activity (U2OS [36]): 68.2% | Activity (HCT-116 [37]): Active

CCOC(=O)CC(=O)C(Cc1c[nH]c2ccccc12)NC(=O)OC(C)(C)C (configuration not stated)
IC50 (HCT-116 [1]): > 50 µM | IC50 (A549 [2]): > 50 µM | IC50 (MCF7): > 50 µM | IC50 (U2OS [3]): > 50 µM | IC50 (HepG2): > 50 µM | IC50 at 72 h [4]: > 50 µM

O=c1[nH]cc(F)c(=O)[nH]1 [FLUOROURACIL]
IC50 (HCT-116 [1]): 5.78 µM | IC50 (A549 [2]): 8.12 µM | IC50 (MCF7): 8.41 µM | IC50 (U2OS [3]): 13 µM | IC50 (HepG2): 19 µM | IC50 at 72 h [4]: 41 µM

CCOC(=O)c1c(O)c(NC(=O)OC(C)(C)C)cc2c1[nH]c1ccccc12
IC50 (HCT-116 [1]): 10.7 µM | IC50 (A549 [2]): > 50 µM | IC50 (MCF7): > 50 µM | IC50 (U2OS [3]): 15.7 µM | IC50 (HepG2): > 50 µM | IC50 at 72 h [4]: > 50 µM | inhibition (U2OS [17]): Active | Drug uptake [18]: Active | inhibition (HCT-116 [19]): Active | inhibition (HCT-116 [20]): Active | inhibition at 10 µM (HCT-116 [21]): 57% | inhibition (U2OS [22]): Active | Activity (HCT-116 [24]): Active | Activity (HCT-116 [25]): 1.16% | Activity (HCT-116 [26]): Active | Activity (HCT-116 [27]): 19.6% | Activity (U2OS [28]): Active | Activity (HCT-116 [29]): Active | Activity (U2OS [30]): Active | Activity (HCT-116 [31]): Active | Activity (U2OS [32]): Active | Activity (HCT-116 [33]): 50.34% | Activity (HCT-116 [34]): Active | Activity (HCT-116 [37]): Active

CCOC(=O)c1c(O)c(NC(=O)c2ccc(CC)o2)cc2c1[nH]c1ccccc12
IC50 (HCT-116 [1]): > 50 µM | IC50 (A549 [2]): > 50 µM | IC50 (MCF7): > 50 µM | IC50 (U2OS [3]): > 50 µM | IC50 (HepG2): > 50 µM | IC50 at 72 h [4]: > 50 µM

CCOC(=O)Nc1cc2c([nH]c3ccccc32)c(C(=O)OCC)c1O
IC50 (HCT-116 [1]): > 50 µM | IC50 (A549 [2]): 16.9 µM | IC50 (MCF7): > 50 µM | IC50 (U2OS [3]): > 50 µM | IC50 (HepG2): > 50 µM | IC50 at 72 h [4]: > 50 µM

CCOC(=O)c1c(OC(=O)c2ccc(C)o2)c(NC(=O)c2ccc(C)o2)cc2c1[nH]c1ccc(NC(=O)c3ccc(C)o3)cc12
IC50 (HCT-116 [1]): > 50 µM | IC50 (A549 [2]): > 50 µM | IC50 (MCF7): > 50 µM | IC50 (U2OS [3]): > 50 µM | IC50 (HepG2): > 50 µM | IC50 at 72 h [4]: > 50 µM
